Test results: patent US12064412B2 (SUN YAT-SEN UNIVERSITY, priority 2019, dated 2024)

Tests used:
[1] = Phase solubility of naringenin with hydroxypropyl β-cyclodextrin in environments of different pH values; format: physicochemical; details: basic pH (8 and 9) versus ultrapure water, same hydroxypropyl β-cyclodextrin concentration (0-16% w/v), 25±1° C., 48 hours
Text: The process of the experimentation on the coating and solubilization of naringenin by hydroxypropyl β-cyclodextrin comprises:
preparing buffer-salt solutions of pH values of 4, 8 and 9 according to the method on a pharmacopoeia, adding different masses of the hydroxypropyl β-cyclodextrin into the buffer-salt solutions of the pH values of 4, 8 and 9 and ultrapure water, to prepare solutions of hydroxypropyl β-cyclodextrin of mass fractions (w/v) of 0, 2, 4, 8 and 16%, adding individually excessive naringenin, shaking in a constant-temperature shaking table at 25±1° C. at 200 rpm for 48 hours, taking out, standing, filtering by using a 0.45 μm microporous filter membranes, removing the primary filtrate, properly diluting the subsequent filtrate, and performing ultraviolet assay.
The detection method comprises, by using ultraviolet-visible spectrophotometry, measuring at the wavelength of 288 nm.
The preparing of a stock solution of the reference substance comprises: precisely weighing an appropriate amount of the naringenin reference substance that has been dried at 105° C. to constant weight, placing in a 10 mL volumetric flask, and dissolving by using methanol to volume, to obtain a stock solution of the reference substance of the concentration of 1 mg/mL. […]

[2] = oral dosage of 21 mg/kg, as reported by documents; cited from earlier work
[3] = oral administration, rat; cited from earlier work

O=C1C[C@@H](c2ccc(O)cc2)Oc2cc(O)cc(O)c21 [naringenin]
total naringenin concentration in hydroxypropyl β-cyclodextrin solution at basic pH relative to ultrapure water [1]: approximately 3 times | AUC0-t [2]: 15080.4 ng·min/g | Tmax [2]: 2 h | bioavailability, as calculated by the free naringenin [3]: approximately 4%
